The subject of test [1] is HBV. In words: Effect of the withdrawal of KDM inhibitors on HBV rebound (HBsAg, HBeAg) in PHH. The format is cell-based, Hepatitis B Virus. The settings on record: for suppression of viral transcription after withdrawal: up to another 14 days after withdrawal; for HBeAg / HBsAg: PHH donor 8181, virus P21, compound removed after two weeks; for rebound of HBsAg or HBeAg secretion into media after compound withdrawal: PHH donor 8181, 21p virus, 14 days treatment, then 14 days without compound. The procedure: PHH from donor 8181 infected with 21p virus was treated with serially diluted Examples 8 or 7 for 14 days. Afterwards the compound was removed and cell cultures were replenished regularly with fresh medium but without compound for another 14 days. The levels of HBsAg and HBeAg secretion were measured during the course of the experiment to monitor the effects of compound on virus replication. No rebound of HBsAg or HBeAg secretion into media was observed after the compound withdrawal.
PHH from donor 8181 were infected with patient viruses P21 for three days before serially diluted Example 8 was added to the cells. After two weeks of the treatment the compound was removed and cells were followed for another 14 days. Activity of the compound was monitored during the course of the experiment using HBsAg and HBeAg readout. The medium with/without compound was replenished every 3-4 days. Day 0—compound was added to the infected cells.
PHH donor 8181 was infected with patient viruses P21 for three days before serially diluted Example 7 was added to the cells. After two weeks of the treatment the compound was removed and cells were followed for another 14 days. Activity of the compound was monitored during the course of the experiment using HBsAg and HBeAg readout. The medium with/without compound was replenished every 3-4 days. Day 0—compound was added to the infected cells.

In test [2] the test system is HBV. In words: Determination of HBV viral RNA by RT-qPCR in PHH. It is filed as cell-based. The settings on record: Hepatitis B virus, read-out: HBV RNA EC50. For orientation: Real-time PCR tracks product formation cycle by cycle.
Description: HBV antiviral activity was assessed in primary human hepatocytes (PHH) in a 96-well format. PHH were (Life Technologies, Chicago, 11) plated on collagen coated tissue culture plates using Plating Media containing William's Medium E supplemented with 1% Penicillin/Streptomycin, 4 μg/mL human recombinant insulin, 2 mM glutamax, 15 mM Hepes, 1 μM dexamethasone and 5% fetal bovine serum (Life Technologies, Cat#A12176-01 Life Technologies, Chicago, Ill.). After a 4-hour incubation at 37° C., cells were switched to Maintenance Media (Cat#CM4000-A15564 Life Technologies, Chicago, Ill.) containing William's Medium E supplemented with 0.5% Penicillin/Streptomycin, 6.25 μg/mL human recombinant insulin, 6.25 μg/mL human transferrin, 6.25 ng/mL selenous acid, 1.25 mg/mL bovine serum albumin, 5.35 μg/mL linoleic acid, 2 mM glutamax, 15 mM Hepes, 0.1 μM dexamethasone, 2% fetal bovine serum, and 2% DMSO (Cat#D2650 Sigma, St. Louis, Mo.). On the next day, cells were infected with approximately 500 genome equivalent of selected HBV clinical isolates (21P (GTA), 32P (GTA), 91P (GTA), AD38 (GTD), 65P (GTD) or 30P (GTE); ProteoGenex, Culver City, Calif.) per cell in Maintenance Media supplemented with 4% PEG 8000 (Cat#V3011 Promega, Madison, Wis.). After 24 hour incubation cells were washed three times with William's Medium E and fed with fresh Maintenance Media. Small molecule inhibitors targeting KDMs were serially diluted in Maintenance Media and added to cells at 3 days post infection (p.i.). Media with compounds was replenished every 2-3 days. Media collected on various days was used for determination of HBsAg and HBeAg levels by MSD ELISA, and HBV RNA by qPCR. All data were converted into percentages of the untreated control and non-linear regression was performed to calculate EC50 or CC50 values.
Following the Alamar Blue measurement, media was removed and total RNA from the cells was isolated using the RNeasy 96 Kit (Cat#74182 Qiagen, Venlo, Netherlands). […] GAPDH mRNA levels were also measured by RT-qPCR to control for differences in cell number, toxicity, and RNA purification efficiency (Cat#4390849 Life Technologies, Chicago Ill.). HBV mRNA Ct values were normalized using their cognate GAPDH mRNA Ct values by the delta-delta-Ct calculation and then expressed as a percentage of the non-targeting scrambled control.
The subject of test [3] is H3K4me3 mark. In words: Western blot detection of H3K4me3 in HBV-infected PHHs. It is filed as cell-based, human. The settings on record: for IC50: Homo sapiens; for chromatin H3K4Me3 mark: PHH from three different donors. The procedure: One million primary human hepatocytes (PHH) cells from three different donors were plated in 6 well collagen coated tissue culture plates in 2.5 ml Plating Media containing William's Medium E supplemented with 1% Penicillin/Streptomycin, 4 μg/mL human recombinant insulin, 2 mM glutamax, 15 mM Hepes, 1 μM dexamethasone and 5% fetal bovine serum (Life Technologies, Cat#A12176-01 Life Technologies, Chicago, Ill.) and incubated for 4-hours at 37° C. Following this incubation the media was changed to Maintenance Media (Cat#CM4000-A15564 Life Technologies, Chicago, Ill.) containing William's Medium E supplemented with 0.5% Penicillin/Streptomycin, 6.25 μg/mL human recombinant insulin, 6.25 μg/mL human transferrin, 6.25 ng/mL selenous acid, 1.25 mg/mL bovine serum albumin, 5.35 μg/mL linoleic acid, 2 mM glutamax, 15 mM Hepes, 0.1 μM dexamethasone, 2% fetal bovine serum, and 2% DMSO (Cat#D2650 Sigma, St. Louis, Mo.). The next day, cells were infected with approximately 500 genome equivalents of HBV clinical isolates 21P (GTA) or AD38 (GTD) per cell in Maintenance Media supplemented with 4% PEG 8000. Small molecule inhibitors targeting KDMs were serially diluted in Maintenance Media and added to cells at 3 days post infection (p.i.). Media with compounds was replenished every 2-3 days. Cells were harvested on day 14 p.i. by scraping the monolayer into ice-cold PBS supplemented with 5 mM Sodium Butyrate and concentrated by centrifugation at 1000×g for 5 minutes at 4° C. The cell pellets were washed twice by re-suspension in PBS and concentrated by centrifugation. The cells were lysed by suspension in Triton Extraction Buffer (TEB: PBS containing 0.5% Triton X 100 (v/v), 2 mM phenylmethylsulfonyl fluoride (PMSF), 0.02% (w/v) NaN3) at a cell density of 10^7 cells per ml and incubated on ice for 10 minutes with gentle stirring. Following centrifugation at 500 g for 10 minutes at 4° C., the supernatants were removed and the pellets were washed in 5×10^7 cells per ml TEB buffer and centrifuged as before. The pellets were re-suspended in 0.2N HCl at a cell density of 4×10^7 cells per ml and the histones were acid extracted overnight at 4° C. Samples were centrifuged at 500 g for 10 minutes at 4° C., the supematants were removed and protein content was determined using the Bradford assay. Histones were separated on a 4-20% gradient SDS gel (Mini protean TGX precast gels from BioRad), and blotted to a Hybond C-extra nitrocellulose membrane (Amersham Biosciences, RPN303E). H3K4me3 and total H3 were detected with a mixture of 1° antibodies (Cat#05-745R Millipore and Cat#14269S Cell Signaling) diluted 1:1000 in 5% skimmed milk powder in PBS containing 0.1% Tween. The western blot was washed 3 times in PBS containing 0.1% tween and incubated with 2° antibodies (Donkey anti-Mouse IRDye at 680LT Cat#926-68022 Licor Odyssey; Donkey anti-Rabbit IRDye at 800CW Cat#96-32213; Licor Odyssey) diluted 1:10000 in 5% skimmed milk powder in PBS containing 0.1% tween 20 for 1 h. Detection of infrared fluorescence was performed on Infrared Fluorescence Imaging System LI-COR. Concentration dependence of H3K4me3/H3 signal was used to calculate IC50 value for induction of H3K4 trimethylation.

The mark [4] stands for this setting: read-out: IC50 (concentration causing a 50% increase in the H3K4me3 mark), Virus 21P (GTA), PHH 4239.
Where [5] appears, read: read-out: IC50 (concentration causing a 50% increase in the H3K4me3 mark), Virus 21P (GTA), PHH 8130.
[6] abbreviates: read-out: IC50 (concentration causing a 50% increase in the H3K4me3 mark), Virus 21P (GTA), PHH 8181.
Setting [7] is: read-out: IC50 (concentration causing a 50% increase in the H3K4me3 mark), Virus AD38 (GTD), PHH 4239.
The mark [8] stands for this setting: read-out: IC50 (concentration causing a 50% increase in the H3K4me3 mark), Virus AD38 (GTD), PHH 8130.
Where [9] appears, read: read-out: IC50 (concentration causing a 50% increase in the H3K4me3 mark), Virus AD38 (GTD), PHH 8181.

Like-named read-outs stand apart in the source and are kept apart here.

With `Nc1c(C(=O)O)ccnc1C(=O)O` [Example 7, reference compound], in test [1] (2 μM), the “suppression of viral transcription after withdrawal” value is on record as “prolonged suppression of viral transcription”. Besides, the HBeAg was found to be 0 ng/mL in test [1] (2000 nM, Day 0); 9.2 ng/mL in test [1] (2000 nM, Day 5); 25.1 ng/mL in test [1] (2000 nM, Day 10); 13.7 ng/mL in test [1] (2000 nM, Day 14); 7.0 ng/mL in test [1] (2000 nM, Day 19); 5.3 ng/mL in test [1] (2000 nM, Day 24). The HBeAg in test [1] (2000 nM, Day 28) came to 5.4 ng/mL. Moreover, the HBsAg in test [1] (2000 nM, Day 0) worked out at 0 ng/mL; in test [1] (2000 nM, Day 5), 20.6 ng/mL; in test [1] (2000 nM, Day 10), 149.2 ng/mL; in test [1] (2000 nM, Day 14) it was 68.6 ng/mL; in test [1] (2000 nM, Day 19) it was 26.8 ng/mL; in test [1] (2000 nM, Day 24), 11.7 ng/mL. Moreover, the HBsAg in test [1] (2000 nM, Day 28) was found to be 19.1 ng/mL. For the same molecule, the “rebound of HBsAg or HBeAg secretion into media after compound withdrawal” value in test [1] is “No rebound”. Further, the concentration for a half-maximal effect (EC50) (commonly the concentration needed to bring the measured effect to its halfway point) in test [2] (HBV-infected PHH) worked out at 224 nM.

For the molecule `CCOC(=O)c1ccnc(CNCC(=O)N(CC)CCN(C)C)c1` [Example 8], the IC50 in test [3] (setting [4]) was 30 nM; in test [3] (setting [5]), 1 nM; in test [3] (setting [6]), 70 nM; in test [3] (setting [7]), 30 nM; in test [3] (setting [8]) it was 3 nM; in test [3] (setting [9]) it was 50 nM. Also, the “chromatin H3K4Me3 mark” value in test [3] is “increase in the chromatin H3K4Me3 mark in a dose-dependent manner”. Besides, the HBeAg in test [1] (20 nM, Day 0) worked out at 0 ng/mL; in test [1] (20 nM, Day 5), 5.3 ng/mL; in test [1] (20 nM, Day 10), 31 ng/mL; in test [1] (20 nM, Day 14), 13 ng/mL; in test [1] (20 nM, Day 19) it was 3 ng/mL; in test [1] (20 nM, Day 24) it was 2.3 ng/mL. The HBeAg in test [1] (20 nM, Day 28) was 1.9 ng/mL. For the same molecule, the HBsAg in test [1] (20 nM, Day 0) was 0 ng/mL; in test [1] (20 nM, Day 5), 13.8 ng/mL; in test [1] (20 nM, Day 10), 147 ng/mL; in test [1] (20 nM, Day 14), 30 ng/mL; in test [1] (20 nM, Day 19), 9 ng/mL; in test [1] (20 nM, Day 24), 4.4 ng/mL. Further, in test [1] (20 nM, Day 28), the HBsAg is given as 5.26 ng/mL. For the same molecule, the “suppression of viral transcription after withdrawal” value in test [1] (0.08 μM) is “prolonged suppression of viral transcription”. In test [1], the “rebound of HBsAg or HBeAg secretion into media after compound withdrawal” value is reported as “No rebound”. Besides, the EC50 in test [2] turned out to be 100 nM.

In the case of `CCN(CCN(C)C)C(=O)CNCc1cc(C(=O)O)ccn1` [Example 9], the IC50 in test [3] (setting [4]) turned out to be 60 nM; in test [3] (setting [5]), 130 nM; in test [3] (setting [6]), 100 nM; in test [3] (setting [7]), 10 nM; in test [3] (setting [8]), 130 nM; in test [3] (setting [9]), 130 nM. Besides, the “chromatin H3K4Me3 mark” value in test [3] is reported as “increase in the chromatin H3K4Me3 mark in a dose-dependent manner”.

The record behind these values is patent publication US20160303095A1, “METHODS OF TREATING HEPATITIS B VIRUS” (Gilead Sciences, Inc., priority 2015, published 2016).
